The CheMixHub viscosity set
Several values for one entry are separate records, joined by “and”; a condition that tells them apart may be missing. Equal entries are not always repeated. ± gives the uncertainty stated by the source.

Compound: O
- viscosity (293.15 K, 100 kPa): 0.994 ± 0.012 mPa·s and 0.991 ± 0.08 mPa·s
- viscosity (295 K, 101.3 kPa): 0.975 ± 0.07 mPa·s
- viscosity (295.15 K, 101 kPa): 0.955 ± 0.009 mPa·s and 0.9548 ± 0.01 mPa·s
- viscosity (295.65 K, 100.9 kPa): 0.9432 ± 0.029 mPa·s
- viscosity (297.15 K, 101 kPa): 0.9111 ± 0.0096 mPa·s
- viscosity (298.15 K, 100 kPa): 0.884 ± 0.071 mPa·s and 0.901 ± 0.055 mPa·s
- viscosity (298.15 K, 101.3 kPa): 0.876 ± 0.036 mPa·s
- viscosity (298.15 K, 101.33 kPa): 0.918 ± 0.025 mPa·s
- viscosity (299.15 K, 101 kPa): 0.8705 ± 0.0092 mPa·s
- viscosity (300.15 K, 101 kPa): 0.797 ± 0.021 mPa·s
- viscosity (300.65 K, 100.9 kPa): 0.8417 ± 0.026 mPa·s
- viscosity (301.15 K, 101 kPa): 0.8327 ± 0.0088 mPa·s
- viscosity (302.15 K, 101 kPa): 0.917 ± 0.2 mPa·s
- viscosity (303.15 K, 100 kPa): 0.796 ± 0.064 mPa·s and 0.81 ± 0.04 mPa·s
- viscosity (305.15 K, 101 kPa): 0.816 ± 0.18 mPa·s and 0.717 ± 0.02 mPa·s
- viscosity (305.65 K, 100.9 kPa): 0.7567 ± 0.023 mPa·s
- viscosity (307.15 K, 101 kPa): 0.734 ± 0.0077 mPa·s
- viscosity (308.15 K, 101.3 kPa): 0.716 ± 0.015 mPa·s and 0.708 ± 0.029 mPa·s and 0.717 ± 0.08 mPa·s
- viscosity (309.15 K, 101 kPa): 0.7052 ± 0.0074 mPa·s
- viscosity (310.65 K, 100.9 kPa): 0.6848 ± 0.021 mPa·s
- viscosity (311.15 K, 101 kPa): 0.6833 ± 0.015 mPa·s and 0.6783 ± 0.0072 mPa·s
- viscosity (313.15 K, 100 kPa): 0.662 ± 0.053 mPa·s and 0.6579 ± 0.027 mPa·s and 0.66 ± 0.04 mPa·s
- viscosity (313.15 K, 101.33 kPa): 0.5631 ± 0.021 mPa·s and 0.658 ± 0.018 mPa·s
- viscosity (315.15 K, 101 kPa): 0.6291 ± 0.0067 mPa·s
- viscosity (316.15 K, 101 kPa): 0.6189 ± 0.013 mPa·s
- viscosity (317.15 K, 101 kPa): 0.6067 ± 0.0064 mPa·s
- viscosity (318.15 K, 101.3 kPa): 0.594 ± 0.013 mPa·s and 0.589 ± 0.024 mPa·s and 0.592 ± 0.08 mPa·s
- viscosity (318.15 K, 101.33 kPa): 0.6 ± 0.004 mPa·s and 0.6 ± 0.03 mPa·s
- viscosity (319.15 K, 101 kPa): 0.5856 ± 0.0062 mPa·s
- viscosity (320.15 K, 101 kPa): 0.5748 ± 0.012 mPa·s
- viscosity (320.65 K, 100.9 kPa): 0.5706 ± 0.018 mPa·s
- viscosity (321.15 K, 101 kPa): 0.5656 ± 0.006 mPa·s
- viscosity (322.9 K, 101 kPa): 0.5516 ± 0.015 mPa·s
- viscosity (323.15 K, 100 kPa): 0.567 ± 0.007 mPa·s and 0.566 ± 0.045 mPa·s
- viscosity (323.15 K, 101 kPa): 0.56 ± 0.17 mPa·s and 0.5829 ± 0.008 mPa·s and 0.5538 mPa·s

Compound: OCC(F)(F)F
- viscosity (293.15 K, 101 kPa): 2.11 ± 0.04 mPa·s and 2.108 ± 0.21 mPa·s
- viscosity (298 K, 101.3 kPa): 1.737 ± 0.016 mPa·s
- viscosity (298.15 K, 100 kPa): 1.744 ± 0.037 mPa·s
- viscosity (298.15 K, 101 kPa): 1.84 ± 0.04 mPa·s and 1.722 ± 0.045 mPa·s
- viscosity (298.15 K, 101.33 kPa): 1.73 ± 0.02 mPa·s
- viscosity (303 K, 101.3 kPa): 1.357 ± 0.014 mPa·s
- viscosity (303.15 K, 101 kPa): 1.62 ± 0.03 mPa·s
- viscosity (303.15 K, 101.33 kPa): 1.53 ± 0.02 mPa·s
- viscosity (308 K, 101.3 kPa): 1.201 ± 0.013 mPa·s
- viscosity (308.15 K, 101 kPa): 1.43 ± 0.03 mPa·s
- viscosity (308.15 K, 101.33 kPa): 1.35 ± 0.01 mPa·s
- viscosity (313 K, 101.3 kPa): 1.054 ± 0.013 mPa·s
- viscosity (313.15 K, 100 kPa): 1.23 ± 0.6 mPa·s
- viscosity (313.15 K, 101 kPa): 1.27 ± 0.03 mPa·s and 1.203 ± 0.12 mPa·s
- viscosity (318.15 K, 100 kPa): 1.1 mPa·s
- viscosity (318.15 K, 101 kPa): 1.13 ± 0.02 mPa·s
- viscosity (318.15 K, 101.33 kPa): 1.09 ± 0.01 mPa·s
- viscosity (323.15 K, 100 kPa): 0.99 ± 0.2 mPa·s and 0.948 ± 0.021 mPa·s
- viscosity (323.15 K, 101 kPa): 1.02 ± 0.02 mPa·s and 0.963 ± 0.097 mPa·s

Compound: CC(=O)OCC(COC(C)=O)OC(C)=O
- viscosity (298 K, 101.33 kPa): 16.31 ± 0.24 mPa·s
- viscosity (303 K, 101.33 kPa): 12.62 ± 0.17 mPa·s
- viscosity (308 K, 101.33 kPa): 10.03 ± 0.13 mPa·s
- viscosity (313 K, 101.33 kPa): 8.12 ± 0.11 mPa·s

Compound: CC(=O)[O-].CCCC[n+]1ccn(C)c1
- viscosity (298.15 K, 100 kPa): 594.8 ± 50 mPa·s
- viscosity (298.15 K, 101 kPa): 441 ± 48 mPa·s
- viscosity (303.15 K, 100 kPa): 399.6 ± 29 mPa·s
- viscosity (313.15 K, 100 kPa): 200.1 ± 11 mPa·s
- viscosity (313.15 K, 101 kPa): 154.5 ± 17 mPa·s
- viscosity (314.3 K, 101 kPa): 125.7 ± 14 mPa·s and 138.3 ± 14 mPa·s
- viscosity (323.15 K, 100 kPa): 111.7 ± 4.5 mPa·s

Compound: Brc1ccccc1
- viscosity (293.15 K, 101 kPa): 1.125 ± 0.019 mPa·s
- viscosity (293.15 K, 101.33 kPa): 1.142 ± 0.028 mPa·s
- viscosity (298.15 K, 101 kPa): 1.07 ± 0.0098 mPa·s and 1.068 ± 0.009 mPa·s
- viscosity (303.15 K, 101.33 kPa): 0.985 ± 0.007 mPa·s
- viscosity (313.15 K, 101.33 kPa): 0.895 ± 0.007 mPa·s
- viscosity (318 K, 101.3 kPa): 0.8536 ± 0.031 mPa·s
- viscosity (318 K, 101.33 kPa): 0.8536 ± 0.039 mPa·s
- viscosity (318.15 K, 101 kPa): 0.7925 ± 0.021 mPa·s and 0.836 ± 0.023 mPa·s
- viscosity (323.15 K, 101 kPa): 0.784 ± 0.021 mPa·s

Compound: CC(C)[N+](=O)[O-]
- viscosity (293.15 K, 101.33 kPa): 0.771 ± 0.008 mPa·s

Compound: C1=C[C@H]2[C@@H](C1)[C@H]1C=C[C@@H]2C1
- viscosity (293.15 K, 101.2 kPa): 4.463 ± 0.23 mPa·s
- viscosity (298.15 K, 101.2 kPa): 3.918 ± 0.2 mPa·s
- viscosity (303.15 K, 101.2 kPa): 3.456 ± 0.18 mPa·s
- viscosity (308.15 K, 101.2 kPa): 3.126 ± 0.16 mPa·s
- viscosity (313.15 K, 101.2 kPa): 2.81 ± 0.14 mPa·s
- viscosity (318.15 K, 101.2 kPa): 2.539 ± 0.13 mPa·s

Compound: FC(F)C(F)(F)OCC(F)(F)C(F)(F)C(F)(F)C(F)F
- viscosity (298.15 K, 101 kPa): 2.5 ± 0.11 mPa·s
- viscosity (308.15 K, 101 kPa): 2.12 ± 0.09 mPa·s
- viscosity (318.15 K, 101 kPa): 1.65 ± 0.07 mPa·s
- viscosity (323.15 K, 101 kPa): 1.52 ± 0.07 mPa·s

Compound: CC(F)(F)Cl
- viscosity (293.15 K, 101 kPa): 0.2489 ± 0.0099 mPa·s
- viscosity (293.35 K, 101 kPa): 0.2432 ± 0.0087 mPa·s
- viscosity (293.45 K, 101 kPa): 0.2381 ± 0.0097 mPa·s
- viscosity (313.15 K, 101 kPa): 0.2004 ± 0.0054 mPa·s
- viscosity (313.25 K, 101 kPa): 0.2015 ± 0.0055 mPa·s
- viscosity (313.35 K, 101 kPa): 0.2002 ± 0.0054 mPa·s

Compound: COc1ccccc1O
- viscosity (303.15 K, 101 kPa): 4.45 ± 0.12 mPa·s
- viscosity (308.15 K, 101 kPa): 4.138 ± 0.051 mPa·s

Compound: O=C1CCCCO1
- viscosity (303.15 K, 101 kPa): 2.758 ± 0.19 mPa·s
- viscosity (308.15 K, 101 kPa): 2.496 ± 0.17 mPa·s
- viscosity (313.15 K, 101 kPa): 2.313 ± 0.16 mPa·s
- viscosity (318.15 K, 101 kPa): 2.119 ± 0.15 mPa·s

Compound: CCCC#N
- viscosity (298.15 K, 101 kPa): 0.502 ± 0.04 mPa·s
